From publication PMC13224100, “Esterase-Responsive Mitochondria-Targeted Hydropersulfide Donors Mitigate Doxorubicin Cardiotoxicity While Preserving Anticancer Activity” (Angewandte Chemie (International ed. in English), 2025)

Tests used:
[1] = Aqueous stability of RSSH precursors in PBS; type: physicochemical
Procedure: We synthesized AST-2 as an esterase-sensitive RSSH donor via reaction of N-acetylpenicillamine methyl ester with methoxycarbonyl sulfenyl chloride in dichloromethane at 0 °C, affording the product in 72% yield (see Scheme S1). We first evaluated the aqueous stability of AST-2 in phosphate-buffered saline (PBS, pH 7.4) at 37 °C.
APT-1 was synthesized in 93% overall yield via a one-pot two-step sequence: N-acetylpenicillamine methyl ester was reacted with chlorocarbonylsulfenyl chloride to afford an S-perthiocarbonyl chloride intermediate, which was subsequently treated with 2-acetoxy-N-methylethan-1-aminium chloride in the presence of triethylamine (see Supporting Information).
We first evaluated the aqueous stability of the mitochondria-targeted analogs AST-2-TPP and APT-1-TPP. […] APT-1-TPP similarly retained excellent stability, with < 5% degradation over 41 h (Figure S1D).

[2] = Stability of RSSH precursors with glutathione by HPLC; type: physicochemical; details: GSH 500 µM (5 equiv), PBS pH 7.4, 37 °C; for half-life at 100 µM: PBS with glutathione (500 µM), pH 7.4, precursor 100 µM, read-out: decomposition half-life (t1/2) in the presence of GSH; for decomposition half-life (t1/2) in the presence of GSH / decomposition rate constant in the presence of GSH: precursor 100 µM; for decomposition rate constant in the presence of GSH: in min-1
Procedure: We next evaluated whether our newly developed precursors generate RSSH in the presence of thiols, which are abundant in biological systems. We examined their reactivity toward glutathione (GSH, 5 equiv) in PBS (pH 7.4, 37 °C), and precursor consumption was quantified by HPLC. […] We attribute this difference to their intrinsic reactivity. As shown previously,[23] AST donors can undergo nucleophilic attack either at the carbonyl carbon, producing the intended RSSH and a thiocarbonate byproduct (Scheme 3a, Path A), or at the disulfide bond, giving an unsymmetrical disulfide and a thiocarbonate intermediate (Scheme 3a, Path B). The higher electrophilicity of the perthiocarbonate carbonyl likely explains the faster consumption of AST derivatives. In contrast, and consistent with earlier studies,[24] APT-1 and APT-1-TPP react mainly through thiol–disulfide exchange (Scheme 3b, Path B), as attack at the perthiocarbamate carbonyl is disfavored due to its lower electrophilicity compared with the perthiocarbonate in AST donors. […]
(n = 3), and data are reported as mean ± standard deviation (SD).
Stability of RSSH Precursors with Glutathione by HPLC
Stock solutions of RSSH precursor (10 mM in DMSO) and GSH (20 mM in PBS, pH 7.4) were prepared immediately prior to the assay. The RSSH precursor (100 µM) was incubated with GSH (500 µM) in phosphate-buffered saline (PBS, pH 7.4) at 37 °C. At designated time points, 200 μL aliquots were withdrawn and immediately quenched by mixing with an equal volume of ice-cold 0.1% formic acid. Samples were analyzed by Agilent HPLC with UV detection using a C18 reverse-phase column (Phenomenex Luna C18, 4.6 × 150 mm, 5 μm) at 25 °C with a flow rate of 1.0 mL/min and an injection volume of 20 μL. The gradient elution (all solvents v/v, containing 0.1% trifluoroacetic acid) was as follows: 0–10 min, linear gradient from 90% water / 10% acetonitrile to 50% water / 50% acetonitrile; 10–18 min, to 10% water / 90% acetonitrile; 18–20 min, held at 10% water / 90% acetonitrile; 20–25 min, return to 90% water / 10% acetonitrile.
Absorbance was monitored at 275 nm. The percentage of precursor remaining at each time point was calculated by comparing the absorbance at 275 nm to the initial value. All experiments were performed in triplicate (n = 3), and data are reported as mean ± standard deviation (SD).
Figure S19. Stability profiles of (A) AST-2, (B) APT-1, (C) AST-2-TPP, and (D) APT-1-TPP in PBS, pH 7.4 at 37 °C in the presence of GSH. Decomposition rate constant for AST-2, APT-1, AST-2-TPP, and APT-1- […]
Decomposition half-lives for AST-2, APT-1, AST-2-TPP, and APT-1-TPP are 8.6 ± 0.1 min, 39.7 ± 1.2 min, 6.3 ± 0.1 min, and 56.2 ± 4.0 min, respectively. Data are mean ± standard deviation (SD) (n = 3)
(1 picture or pasted object on this page, not shown here)

H9c2 cells = assay: Cytoprotection against DOX-induced toxicity, CCK-8 assay; type: cell-based; details: 4 h pretreatment, then 24 h co-treatment with DOX 5 μM
Procedure: We evaluated the cytoprotective effects of RSSH precursors against DOX-induced cardiotoxicity in H9c2 cardiomyoblasts. First, we assessed the cytotoxicity of the RSSH donors (AST-2, APT-1, AST-2-TPP, and APT-1-TPP) using the CCK-8 assay.[24] […] To evaluate cytoprotection, H9c2 cells were pretreated with RSSH donors for 4 h, followed by 24 h co-treatment with DOX (5 μM). As expected, DOX alone reduced cell viability to ca. 50% (Figure 4a). […] Although both compounds were protective, no enhancement of potency was observed upon TPP conjugation. […] A distinctive feature of our study is the direct comparison between mitochondria-targeted and non-targeted RSSH donors. […] TPP conjugation only modestly enhances the cytoprotective effects of RSSH donors under our experimental conditions. This outcome may reflect the intrinsic high efficacy of non-targeted RSSH donors, thereby limiting the additional benefit of mitochondrial targeting.
Figure 4. Protective effects of RSSH donors against DOX-induced cytotoxicity in H9c2 cells. Cells were pretreated with RSSH donors for 4 h, followed by exposure to DOX (5 μM) for an additional 24 h. Cell viability was assessed using the cell counting Kit-8 (CCK-8) assay. Results are expressed as mean ± SEM, n = 3; *P < 0.05, **P < 0.01, ***P < 0.001, ****P < 0.0001. Ctl = vehicle-treated group (0.01% DMSO in medium). […]
Cytoprotective Effects of RSSH Donors against Doxorubicin Toxicity
Cytoprotective studies were performed as previously described.[8] Briefly, H9c2 cells, HepG2 cells, MDA-MB-468 cells, and MCF-7 cells were seeded at a density of 7 x 10^3 cells/well. […] Additionally, in the vehicle control group, cells were treated with medium (DMEM with 10% FBS) containing 0.01% DMSO only. The cells were then further incubated for an additional 4 h before being treated with DOX (10 μL/well, with final concentration of 5 μM). After a 24 h co-incubation with DOX, each well was carefully washed three times with PBS (pH 7.4) and 100 μL o f F B S-free medium containing 10% v/v CCK-8 (Dojindo) was added. The plates were then incubated for 1-2 h before measuring absorbance at […]
The relative % cell viability was calculated as 100 times the ratio of Abs450 (RSSH donor + DOX-exposed) to Abs450 (vehicle, non-DOX-exposed). Each treatment condition was performed in 6 technical replicates per biological replicate, and the experiment was independently repeated three times (n = 3 biological replicates). Data are presented as mean ± SEM. […]

decomposition (aqueous stability) ([1]; PBS pH 7.4, 37 °C, over 7 h) | half-life at 100 µM [2] [min] | decomposition half-life (t1/2) in the presence of GSH [2] [min] | decomposition (aqueous stability) ([1]; PBS, 37 °C, over 48 h) [%] | decomposition (aqueous stability) ([1]; PBS pH 7.4, 37 °C, over 9 h) [%] | degradation (aqueous stability) ([1]; PBS pH 7.4, 37 °C, over 41 h) [%] | Structure (SMILES) | decomposition rate constant in the presence of GSH [2] | concentration of maximal protection (H9c2 cells) [µM] | concentration with significant protective effects (H9c2 cells) [µM] | protection against DOX-induced cytotoxicity (H9c2 cells)
ca. 20% | 6.3 ± 0.1 | 6 |  |  |  | COC(=O)SSC(C)(C)C(NC(C)=O)C(=O)N(C)CCC[P+](c1ccccc1)(c1ccccc1)c1ccccc1 (stereo not drawn) [AST-2-TPP] | 0.1094 ± 0.00183 | 25 | ≥ 1 | dose-dependent protection
 | 39.7 ± 1.2 | 40 | 7 |  |  | COC(=O)C(NC(C)=O)C(C)(C)SSC(=O)N(C)CCOC(C)=O (stereo not drawn) [APT-1] | 0.01749 ± 0.00052 |  |  | dose-dependent cytoprotective effect
 | 8.6 ± 0.1 | 9 |  | 22 |  | COC(=O)SSC(C)(C)C(NC(C)=O)C(=O)OC (stereo not drawn) [AST-2] | 0.08081 ± 0.00105 | 25 | ≥ 1 | dose-dependent protection
 | 56.2 ± 4 | 56 |  |  | < 5 | CC(=O)NC(C(=O)N(C)CCC[P+](c1ccccc1)(c1ccccc1)c1ccccc1)C(C)(C)SSC(=O)N(C)CCOC(C)=O (stereo not drawn) [APT-1-TPP] | 0.01236 ± 0.00066 |  |  | dose-dependent cytoprotective effect
